Counter-ions that a name gives are not always drawn.
Tests used:
[1] = target: T1, cloned human 5-HT2C receptor (Homo sapiens, UniProt P28335); assay: Human 5-HT2C receptor binding assay; settings: [3H]mesulergine (1 nM) displacement, CHO-K1 cell membranes; read-out: 5-HT2C pKi (converted)
T1 construct: purchased Euroscreen; host or cells: CHO-K1
T1 sequence (P28335 33-458): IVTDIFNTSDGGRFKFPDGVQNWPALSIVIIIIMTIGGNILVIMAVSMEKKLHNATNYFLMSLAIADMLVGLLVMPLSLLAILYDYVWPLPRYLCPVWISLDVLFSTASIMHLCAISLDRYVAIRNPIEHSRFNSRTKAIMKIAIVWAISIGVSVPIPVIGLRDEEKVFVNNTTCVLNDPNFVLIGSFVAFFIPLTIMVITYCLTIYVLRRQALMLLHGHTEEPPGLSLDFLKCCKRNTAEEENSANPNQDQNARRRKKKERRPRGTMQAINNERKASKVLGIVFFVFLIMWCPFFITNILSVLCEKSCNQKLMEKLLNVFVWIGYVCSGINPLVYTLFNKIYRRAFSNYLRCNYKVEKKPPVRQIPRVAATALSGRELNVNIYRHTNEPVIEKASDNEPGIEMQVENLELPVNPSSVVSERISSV
Method: (§1) The binding affinity of ligands for human 5-HT2A and 5-HT2C receptors was determined using the following assay.
Membrane preparations from CHO-K1 cells expressing the cloned human 5-HT2C receptor were obtained (Euroscreen). The membranes were thawed rapidly and diluted in assay buffer containing Tris-HCl (50 mM, pH 7.7), ascorbic acid (0.1%) and pargyline (10 μM). The membranes were resuspended by homogenisation, prior to adding 6 μg of membranes to assay wells containing [^3H]mesulergine (1 nM), assay buffer (50 mM Tris at pH 7.7 and 0.1% ascorbic acid) containing pargyline (10 μM), and test compounds (1×10^−10 to 1×10^−4M). Non specific binding was determined in the presence of 100 μM mianserin. After 30 minutes incubation at 37° C., the assay mixture was filtered through a combination of GF-C and GF-B filters, pre-soaked in 1% bovine serum albumin, using a Brandel cell harvester, and were washed three times using ice cold Tris-HCl buffer (50 mM). Radioactivity retained on the filters was determined by liquid scintillation counting. For each test compound, the concentration that inhibited binding of [^3H]mesulergine by 50% was determined using curve fitting software (Prism). Kd values (concentration of mesulergine required to occupy 50% of the receptor binding sites at equilibrium) determined from saturation binding studies were then used to calculate inhibition dissociation constants (Ki) using the following equation: […]

[2] = target: T2, cloned human 5-HT2A receptor (Homo sapiens, UniProt P28223); assay: Human 5-HT2A receptor binding assay; settings: [3H]ketanserin (1 nM) displacement, CHO-K1 cell membranes; read-out: 5-HT2A pKi (converted)
T2 construct: purchased Euroscreen; host or cells: CHO-K1
Method: as §1
Membrane preparations from CHO-K1 cells expressing the cloned human 5-HT2A receptor were obtained (Euroscreen). The membranes were thawed rapidly and diluted in assay buffer containing Tris-HCl (50 mM, pH 7.7). The membranes were resuspended by homogenisation, prior to adding 15 μg of membranes to assay wells containing [3H]ketanserin (1 nM), assay buffer (50 mM Tris at pH 7.4) containing pargyline (10 μM), and test compounds (1×10^−10 to 1×10^−4M). Non specific binding was determined in the presence of 100 μM mianserin. After 15 minutes incubation at 37° C., the assay mixture was filtered through a combination of GF-C and GF-B filters, pre-soaked in 0.05% Brij, using a Brandel cell harvester, and were washed three times using ice cold Tris-HCl buffer (50 mM). Radioactivity retained on the filters was determined by liquid scintillation counting. For each test compound, the concentration that inhibited binding of [^3H]ketanserin by 50% was determined using curve fitting software (Prism). Kd values (concentration of ketanserin required to occupy 50% of the receptor binding sites at equilibrium) determined from saturation binding studies were then used to calculate inhibition dissociation constants (Ki) using the following equation: […]

[3] = target: T3, human cloned 5-HT2B receptors (Homo sapiens, UniProt P41595); assay: Human cloned 5-HT2B receptor binding assay; settings: [3H]LSD (1 nM) displacement, membranes of CHO-K1 cells expressing cloned 5-HT2B receptor; read-out: 5-HT2B pKi (converted)
T3 construct: expressed in transfected cells; host or cells: CHO-K1
Method: The binding affinity of the compounds for human cloned 5-HT2B receptors was determined using the following assay.
CHO-K1 cells expressing cloned 5-HT2B receptor were maintained in Ultra-CHO medium containing 400 μg/ml of G418, 100 U/ml penicillin, 100 μg/ml streptomycin, 2.5 μg/ml fungizone and 1-foetal bovine serum, in 95/5% O2/CO2 at 37° C. The cells were harvested using 0.25% trypsin and were centrifuged at 800 rpm for 8 minutes. The cells were homogenised in 50 mM HEPES buffer containing 1 mM disodium EDTA and 1 mM PMSF at pH 7.4, using a Dounce homogeniser (20 strokes). The homogenate was centrifuged at 2280 rpm (1000 g) and 4° C. for 10 minutes, after which the supernatant was removed by decanting. The pellet was re-homogenised as above, and the resulting supernatant removed and combined with that already obtained. The supernatant solution was then centrifuged at 18300 rpm (40000 g) for 10 minutes at 4° C. using a Sorvall centrifuge. The supernatant was removed, and the pellet was re-suspended in 50 mM buffer at pH 7.4 using a Ultra-turrax T25 Polytron, before centrifugation again at 40000 g as above. This wash procedure was repeated, after which the membrane preparation was stored at a concentration of 1 mg/ml at −80° C. until use.
The membranes were thawed rapidly and diluted in assay buffer containing Tris-HCl (50 mM, pH 7.4), ascorbic acid (0.1°) and calcium chloride (4 mM). The membranes were homogenised to resuspend them, prior to adding 10 or 15 μg of membranes to assay wells containing [^3H]LSD (1 nM), assay buffer (50 mM Tris, 4 mM calcium chloride and 0.1° ascorbic acid) containing pargyline (10 μM), and the test compounds (1×10^−10 to 1×10^−4M). Non specific binding was determined in the presence of 100 μM 5-HT. After 30 minutes incubation at 37° C., the assay mixture was filtered through a combination of GF-C and GF-B filters, pre-soaked in 1% polyethyleneimine, using a Brandel cell harvester, and were washed three times using 50 mM Tris-HCl. Radioactivity retained on the filters was determined by liquid scintillation counting. For each test compound, the concentration that inhibited binding of [^3H]LSD by 50% was determined using curve fitting software (Prism). Kd values (concentration of LSD required to occupy 50% of the receptor binding sites at equilibrium) determined from saturation binding studies were then used to calculate inhibition dissociation constants (Ki) using the following equation: […]
This approach follows that set out in Kenakin, T. P. Pharmacologic analysis of drug-receptor interaction. Raven Press, New York, 2nd Edition.

T3 sequence (P41595 whole entry): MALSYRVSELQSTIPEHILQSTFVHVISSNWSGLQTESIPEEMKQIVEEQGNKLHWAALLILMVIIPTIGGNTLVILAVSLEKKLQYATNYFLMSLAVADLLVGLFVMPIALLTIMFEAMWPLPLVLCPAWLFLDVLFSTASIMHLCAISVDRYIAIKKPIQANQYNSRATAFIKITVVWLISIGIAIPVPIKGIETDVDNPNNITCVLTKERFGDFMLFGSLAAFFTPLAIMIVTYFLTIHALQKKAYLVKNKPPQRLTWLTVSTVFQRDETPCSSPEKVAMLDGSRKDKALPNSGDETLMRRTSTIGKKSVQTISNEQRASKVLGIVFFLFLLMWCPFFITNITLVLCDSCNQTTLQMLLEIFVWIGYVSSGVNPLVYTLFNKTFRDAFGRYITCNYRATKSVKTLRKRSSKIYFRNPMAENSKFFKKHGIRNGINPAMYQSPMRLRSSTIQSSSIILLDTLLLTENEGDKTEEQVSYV
T2 sequence (P28223 whole entry): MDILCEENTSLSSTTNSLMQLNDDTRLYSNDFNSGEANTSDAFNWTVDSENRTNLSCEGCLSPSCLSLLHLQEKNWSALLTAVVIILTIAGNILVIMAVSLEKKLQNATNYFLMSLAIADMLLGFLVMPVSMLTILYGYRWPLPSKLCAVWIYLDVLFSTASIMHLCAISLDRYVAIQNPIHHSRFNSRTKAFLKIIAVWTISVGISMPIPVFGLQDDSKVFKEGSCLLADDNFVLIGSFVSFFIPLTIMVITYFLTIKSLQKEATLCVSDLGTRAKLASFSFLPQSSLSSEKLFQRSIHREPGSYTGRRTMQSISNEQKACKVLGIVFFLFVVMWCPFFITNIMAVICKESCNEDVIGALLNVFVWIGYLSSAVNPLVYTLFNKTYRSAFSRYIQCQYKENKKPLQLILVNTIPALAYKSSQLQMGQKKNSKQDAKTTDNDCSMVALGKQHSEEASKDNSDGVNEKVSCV

Ki [1] [nM] | Ki [2] [nM] | Ki [3] [nM] | SMILES
> 1000 | > 1000 | < 1000 | Cc1cc(Nc2cccc(O)c2)nc(N)n1 [Compound 2Q, 3-(2-amino-6-methyl-pyrimidin-4-ylamino)-phenol hydrochloride]
> 1000 | > 1000 | < 1000 | Cc1cc(Nc2cccc3c2CCC3)nc(N)n1 [Compound 2R, N^4-indan-4-yl-6-methyl-pyrimidine-2,4-diamine hydrochloride]
> 316 | > 1000 | < 100 | Cc1cc(Nc2ccc(C)c(Br)c2)nc(N)n1 [Compound 2S, N^4-(3-bromo-4-methyl-phenyl)-6-methyl-pyrimidine-2,4-diamine hydrochloride]
> 1000 | > 1000 | < 1000 | Cc1cc(Nc2cccc(Br)c2C)nc(N)n1 [Compound 2T, N^4-(3-bromo-2-methyl-phenyl)-6-methyl-pyrimidine-2,4-diamine hydrochloride]
> 1000 | > 1000 | < 1000 | Cc1ccc(Nc2cc(C)nc(N)n2)cc1 [Compound 2U, 6-methyl-N^4-p-tolyl-pyrimidine-2,4-diamine hydrochloride]
> 1000 | > 1000 | < 1000 | CC(=O)Nc1ccc(Nc2cc(C)nc(N)n2)cc1 [Compound 2V, N-[4-(2-amino-6-methyl-pyrimidin-4-ylamino)-phenyl]-acetamide hydrochloride]
> 1000 | > 1000 | < 1000 | Cc1cc(Nc2cccc(CO)c2)nc(N)n1 [Compound 2X, [3-(2-amino-6-methyl-pyrimidin-4-ylamino)-phenyl]-methanol hydrochloride]
> 1000 | > 1000 | < 100 | Cc1cc(Nc2ccc(I)c(Cl)c2)nc(N)n1 [Compound 2Y, N-(3-chloro-4-iodo-phenyl)-6-methyl-pyrimidine-2,4-diamine hydrochloride]
> 316 | > 100 | < 100 | Cc1cc(Nc2cccc(-c3ccccc3)c2)nc(N)n1 [Compound 10A, N^4-biphenyl-3-yl-6-methyl-pyrimidine-2,4-diamine trifluoroacetic acid]
> 10000 | > 10000 | < 1000 | COc1ccc(-c2cccc(Nc3cc(C)nc(N)n3)c2)cc1OC [Compound 10B, N-(3′,4′-dimethoxy-biphenyl-3-yl)-6-methyl-pyrimidine-2,4-diamine trifluoroacetic acid]
> 316 | > 316 | < 1000 | CC(=O)c1cccc(-c2cccc(Nc3cc(C)nc(N)n3)c2)c1 [Compound 10C, 1-[3′-(2-amino-6-methyl-pyrimidin-4-ylamino)-biphenyl-3-yl]-ethanone trifluoroacetic acid]
> 1000 | > 1000 | < 1000 | Cc1cc(Nc2cccc(-c3cccnc3)c2)nc(N)n1 [Compound 10D, 6-methyl-N^4-(3-pyridin-3-yl-phenyl)-pyrimidine-2,4-diamine bis trifluoroacetic acid]
> 100 | > 100 | < 100 | Cc1cccc(-c2cccc(Nc3cc(C)nc(N)n3)c2)c1 [Compound 10E, 6-methyl-N^4-(3′-methyl-biphenyl-3-yl)-pyrimidine-2,4-diamine trifluoroacetic acid]
> 100 | > 316 | < 100 | COc1ccccc1-c1cccc(Nc2cc(C)nc(N)n2)c1 [Compound 10F, N^4-(2′-methoxy-biphenyl-3-yl)-6-methyl-pyrimidine-2,4-diamine trifluoroacetic acid]
> 316 | > 316 | < 100 | Cc1cc(Nc2cccc(-c3ccc(N(C)C)cc3)c2)nc(N)n1 [Compound 10H, N^4-(4′-dimethylamino-biphenyl-3-yl)-6-methyl-pyrimidine-2,4-diamine bis trifluoroacetic acid]
> 10000 | > 10000 | < 1000 | CC(=O)Nc1cccc(-c2cccc(Nc3cc(C)nc(N)n3)c2)c1 [Compound 10I, N-[3′-(2-amino-6-methyl-pyrimidin-4-ylamino)-biphenyl-3-yl]-acetamide hydrochloride]
> 100 | > 1000 | < 10 | Cc1cc(Nc2ccc(-c3ccccc3)cc2)nc(N)n1 [Compound 11A, N^4-biphenyl-4-yl-6-methyl-pyrimidine-2,4-diamine trifluoroacetic acid]

SMILES | Ki [1] [nM] | Ki [2] [nM] | Ki [3] [nM]
Cc1cc(Oc2cccc3ccccc23)nc(N)n1 [Compound 4B, 4-methyl-6-(naphthalen-1-yloxy)-pyrimidin-2-ylamine] | > 10000 | > 10000 | < 100
Cc1cc(Oc2cccc(-c3ccccc3)c2)nc(N)n1 [Compound 4C, 4-(biphenyl-3-yloxy)-6-methylpyrimidin-2-ylamine] | > 10000 | > 10000 | < 1000
Cc1cccc(-c2ccc(Nc3cc(C)nc(N)n3)cc2)c1 [Compound 11B] | > 31.6 | > 1000 | < 10
Cc1cccc(-c2cc(Nc3cc(C)nc(N)n3)ccc2C)c1 [Compound 12, N^4-(6,3′-dimethyl-biphenyl-3-yl)-6-methyl-pyrimidine-2,4-diamine] | > 1000 | > 1000 | < 100
Nc1nccc(Nc2ccc(I)cc2)n1 [Compound 16, N″-(4-Iodo-phenyl)-pyrimidine-2,4-diamine] | > 1000 | > 1000 | < 1000
CCOc1ccc2ccccc2c1-c1c[nH]c(NC(C)=O)n1 [Compound 103A, N-[4-(2-Ethoxy-naphthalen-1-yl)-1H-imidazol-2-yl]-acetamide] | > 1000 | > 3160 | < 100

Source: patent publication US20090018150A1, “5-Ht2b Receptor Antagonists” (ASTERAND UK LIMITED, priority 2003, published 2009)
